Assay results as given in US7307101B2, “Use of 20-HETE synthesizing enzyme inhibitors as therapy for cerebral vascular disease” (MCW Research Foundation, Inc., priority 2000, dated 2007).
Values joined by “and” are separate entries in the source; they are usually repeats but may differ in a detail not shown here. Equal values may be shown once. One block for each compound: values may come before it.

Key:
[1] = system: 20-HETE synthesizing enzyme; assay: 20-HETE formation in rat renal microsomes ([3H]-AA, Example 3); type: biochemical
Experimental: All procedure was carried out at 4° C. Renal cortex was pooled from twenty male SHR rats (6 weeks of age). They were homogenized extensively in lysis buffer (20 mM HEPES, pH 7.4, 1 mM EDTA, 100 μM p-(amidinophenyl)metanesulfonyl fluoride and 250 mM sucrose), and centrifuged at 16,000×g for 10 min. Supernatant was further centrifuged at 16,000×g for 30 min. Soluble fraction was collected and centrifuged at 200,000×g for 30 min. The resulting pellet was suspended in 50 mM MOPS buffer.
The reaction was terminated by adding formic acid and acetonitrile to a final concentration of 1% and 50%, respectively.

cerebral arteries = settings: read-out: EC50, constriction of cerebral arteries; cited from earlier work
CYP2C19 = biological target: T1, CYP2C19 (Homo sapiens, UniProt P33261); assay: CYP2C19 activity in human liver microsomes; type: in vitro ADME
T1 construct: The enzyme/substrate contained buffer, human liver microsomes and the following substrates; tissue Nippon Nosanko; host or cells: pooled human liver microsomes (15 donors)
T1 sequence (P33261 whole entry): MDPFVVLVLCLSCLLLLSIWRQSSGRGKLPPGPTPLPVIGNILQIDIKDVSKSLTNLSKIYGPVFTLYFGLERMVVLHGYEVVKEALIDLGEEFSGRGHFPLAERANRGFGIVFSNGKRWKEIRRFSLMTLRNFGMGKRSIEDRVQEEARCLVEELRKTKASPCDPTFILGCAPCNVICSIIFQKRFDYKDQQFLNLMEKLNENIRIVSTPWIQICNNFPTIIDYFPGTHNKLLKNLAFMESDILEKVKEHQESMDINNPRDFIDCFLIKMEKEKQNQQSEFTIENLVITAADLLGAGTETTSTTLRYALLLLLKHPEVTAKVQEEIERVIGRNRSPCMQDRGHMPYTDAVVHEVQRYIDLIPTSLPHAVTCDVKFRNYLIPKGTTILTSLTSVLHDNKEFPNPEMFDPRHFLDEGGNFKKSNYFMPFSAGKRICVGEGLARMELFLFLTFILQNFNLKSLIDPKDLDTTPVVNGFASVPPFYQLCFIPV
Description: (§1) Microsomes prepared from the livers of 15 humans was purchased from Nippon Nosanko.

[2] = biological target: human 20-HETE synthesizing enzyme; assay: Formation of 20-HETE by human renal microsomes; type: biochemical; settings: read-out: IC50, formation of 20-HETE by human renal microsomes
Experimental: All reactions were terminated by acidification with 1% formic acid. Equal volume of acetonitrile was added and finally 50% acetonitrile mixtures were subjected to HPLC analysis.

CYP2D6 = CYP2D6 (Homo sapiens, UniProt P10635); assay: in vitro
CYP2D6, sequence (P10635 whole entry): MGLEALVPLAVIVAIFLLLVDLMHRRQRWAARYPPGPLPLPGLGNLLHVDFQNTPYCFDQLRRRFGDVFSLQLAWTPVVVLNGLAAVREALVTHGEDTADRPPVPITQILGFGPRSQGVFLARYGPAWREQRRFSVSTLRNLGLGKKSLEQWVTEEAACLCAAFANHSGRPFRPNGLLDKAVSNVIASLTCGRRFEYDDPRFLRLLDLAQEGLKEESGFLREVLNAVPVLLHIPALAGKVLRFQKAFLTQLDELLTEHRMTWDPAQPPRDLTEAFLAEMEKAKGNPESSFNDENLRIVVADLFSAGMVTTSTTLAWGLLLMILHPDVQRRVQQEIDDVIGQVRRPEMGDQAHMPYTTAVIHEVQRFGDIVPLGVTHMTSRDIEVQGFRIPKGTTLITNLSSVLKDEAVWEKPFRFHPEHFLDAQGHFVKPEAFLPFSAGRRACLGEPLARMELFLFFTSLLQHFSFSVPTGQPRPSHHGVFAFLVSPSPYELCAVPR
Description: as §1

CYP3A4 = CYP3A4 (Homo sapiens, UniProt P08684); assay: in vitro; settings: microsomes
CYP3A4, sequence (P08684 whole entry): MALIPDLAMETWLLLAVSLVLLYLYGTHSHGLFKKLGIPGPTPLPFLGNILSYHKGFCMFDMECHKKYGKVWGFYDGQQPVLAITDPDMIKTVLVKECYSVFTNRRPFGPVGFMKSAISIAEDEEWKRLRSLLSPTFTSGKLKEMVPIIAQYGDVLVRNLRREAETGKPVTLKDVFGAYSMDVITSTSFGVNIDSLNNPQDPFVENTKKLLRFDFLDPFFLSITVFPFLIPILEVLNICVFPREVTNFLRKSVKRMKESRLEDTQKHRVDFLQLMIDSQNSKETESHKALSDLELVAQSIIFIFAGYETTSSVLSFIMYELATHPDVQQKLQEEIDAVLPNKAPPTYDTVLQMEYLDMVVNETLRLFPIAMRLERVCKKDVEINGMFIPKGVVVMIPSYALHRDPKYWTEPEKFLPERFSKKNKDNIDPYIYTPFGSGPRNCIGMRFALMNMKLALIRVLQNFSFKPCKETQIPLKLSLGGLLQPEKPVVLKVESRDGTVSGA
Description: as §1

CYP2C9 = CYP2C9 (Homo sapiens, UniProt P11712); assay: CYP2C9 activity in human liver microsomes
CYP2C9, sequence (P11712 whole entry): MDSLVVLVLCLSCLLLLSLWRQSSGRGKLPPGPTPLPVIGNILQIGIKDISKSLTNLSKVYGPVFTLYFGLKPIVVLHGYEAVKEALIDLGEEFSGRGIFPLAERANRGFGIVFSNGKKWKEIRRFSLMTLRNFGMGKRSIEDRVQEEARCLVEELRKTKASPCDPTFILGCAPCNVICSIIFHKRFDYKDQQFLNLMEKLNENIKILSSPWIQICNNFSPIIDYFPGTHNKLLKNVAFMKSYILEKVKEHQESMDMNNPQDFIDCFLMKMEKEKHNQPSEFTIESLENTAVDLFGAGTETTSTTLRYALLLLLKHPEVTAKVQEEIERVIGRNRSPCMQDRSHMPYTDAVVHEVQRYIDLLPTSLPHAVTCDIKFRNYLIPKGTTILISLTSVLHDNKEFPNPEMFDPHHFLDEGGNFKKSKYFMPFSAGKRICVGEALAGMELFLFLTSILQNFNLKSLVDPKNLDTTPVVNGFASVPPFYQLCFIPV
Description: as §1

[3] = given systemically; cited from earlier work
20-HETE formation = settings: read-out: IC50 for inhibition of 20-HETE formation; cited from earlier work
cerebral blood flow = settings: intracerebroventricular injection; cited from earlier work
[4] = Physiological parameters (MAP, endtidal pCO2) during the SAH experiment; type: in vivo, rat; settings: rats, any time
Experimental: (§2) Surgical preparation. Rats were anesthetized with ketamine (Ketaject® 20 mg/kg i.m.) and thiobutabarbital sodium (Inactin® 50 mg/kg i.p.). A cannula was placed in the trachea and the rats were artificially ventilated using a small animal ventilator (SAR-830, CWE, Inc., Ardmore, Pa.) with a mixture of 30% O2 in N2. The femoral vein was cannulated for the infusion of drug and the rats received an i.v. infusion of 0.9% NaCl solution at a rate of […] to replace fluid losses. The femoral artery was cannulated for measurement of mean arterial pressure (MAP) and arterial blood gases. Endtidal partial pressure of carbon dioxide (pCO2) was controlled at 38 mmHg by adjusting the minute ventilation according to the reading of an CO2 analyzer (Capstar-100 IITC, Inc., Woodland Hills, Calif.). Blood samples were collected at the beginning and end of the experiment and analyzed using a blood gas analyzer (ABL 300, Radiometer, Copenhagen, Denmark) to validate the endtidal pCO2 readings. Anesthesia was maintained by administering additional amounts of thiobutabarbital (8 mg/kg i.v.) as needed. Rectal body temperature was maintained at 37±1° C.

20-HETE in CSF = assay: 20-HETE concentration in CSF after SAH; type: in vivo, rat; settings: rats, 2 hr after SAH, drug given prior to SAH
Experimental: Measurement of 20-HETE in CSF. At the end of each experiment, CSF was collected from the Cisterna Magna using a 1 ml syringe and a 30 gauge needle. […] 20-HETE concentration in CSF was measured using a new fluorescent HPLC assay that was recently described. […] Briefly, 50 ng of an internal standard 20-hydroxyeicosa-6(Z), 15(Z)-dienoic acid (WIT-002) was added to the CSF samples (50 μl). The samples were extracted with 1 mL of ethyl acetate, the extract was dried under argon and the lipid fraction was purified on a Sep-Pak Vac™ column (cat. no. WAT054955, Waters Corporation, Milford, Mass.). […] N,N-diisopropylethylamine (10 μl) was added to catalyze the reaction. The sample was reacted for 30 min at room temperature. […] The amount of 20-HETE in a sample was determined by comparing the area of the 20-HETE peak to that of the internal standard.

rats with SAH = assay: Effect on rCBF after SAH, drug given before SAH; type: in vivo, rat
Experimental: Animals. Experiments were performed on male Sprague-Dawley rats (9-12 weeks old), purchased from Harlan Sprague-Dawley, Inc. (Indianapolis, Ind.). The rats were housed in an Animal Care Facility at the Medical College of Wisconsin, which is approved by the American Association for the Accreditation of Laboratory Animal Care. All protocols involving animals received approval by the Animal Care Committee of the Medical College of Wisconsin.
as §2
Induction of SAH and measurement of cerebral blood flow. SAH was induced by injection of 0.3 ml autologous arterial blood into the Cisterna Magna using a modification of a posterior cranio-cervical approach of a model of SAH. Delgado T J et al., Stroke 16: 595-602 (1985); Solomon R A et al., Stroke 16: 58-64 (1985). The head of the rat was placed in a stereotactic head holder and the atlanto-occipital membrane was exposed by bluntly separating the overlying neck muscles in the midline. The occipital bone and the atlas were visualized. A 30 gauge needle attached to PE-10 was inserted using a stereomicroscope into the Cistema Magna by penetrating the atlanto-occipital membrane. Then, 0.3 ml of freshly drawn unheparinized arterial blood was injected into the Cistema Magna at a rate of 35 μl/min using a syringe pump. This created a massive SAH that was confirmed in all rats at autopsy. Blood was found overlying the cerebello-medullary junction posteriorly and around the basal artery and the vessels of the Circle of Willis.
Cerebral blood flow (CBF) was continuously measured using laser Doppler flowmetry through a thinned cranial window. […] A PF 103 laser Doppler flow (LDF) probe was positioned over the cranial window and CBF was monitored using a PF-3 laser Doppler flowmeter (Perimed, Stockholm, Sweden).
Other animals received 17-ODYA (1.5 nmol) or vehicle in a volume of 50 μl that was injected directly into the Cistema Magna using a micromanipulator and a 30 gauge needle. The CBF recorded over the last 5 minutes of the control period immediately before initiation of SAH served as the control value. […] CBF was recorded for 2 min intervals at 10, 20, 30, 60, 90 and 120 minutes after completion of the injection of the blood. The CBF data are expressed as percentage change from control.

[5] = only at very high concentrations
[6] = human, microsomes, % Inhibition (duplicate) CYP2D6
[7] = positive control, concentration not given

concentrations at which the formation of 20-HETE was inhibited [1, 5]: 10 to 20 µg/mL
concentrations at which the formation of 20-HETE was inhibited (molar) [1, 5]: 21 to 42 µM
SMILES: Clc1ccc(COC(Cn2ccnc2)c2ccc(Cl)cc2Cl)c(Cl)c1 (stereo not drawn) [miconazole]

SMILES: O=C(O)CCCC=CCC=CCC=CCC=CCCCCCO [20-HETE, 20-hydroxyeicosetetraenoic acid]
EC50 (cerebral arteries): < 0.01 µM

% Inhibition (duplicate) CYP2C19 (CYP2C19; inhibitor 100 μM, 100 µM): 40-80% and 75%
IC50 [2]: 38.5 ± 14.9 µM
% Inhibition (duplicate) CYP2D6 (CYP2D6; human, microsomes, 100 µM): 42%
inhibition at 100 µM (CYP2D6; [6]): 40 to 80%
% Inhibition (duplicate) CYP3A4 (CYP3A4; 100 µM): 81%
IC50, formation of both EETs and 20-HETE ([1]; SHR rat renal microsomes, nonselective inhibitor): approximately 20 μg/ml
IC50 ([1]; read-out: IC50, formation of both EETs and 20-HETE (molar), SHR rat renal microsomes, nonselective inhibitor): ~150 µM
SMILES: Nn1nnc2ccccc21 [1-ABT, 1-aminobenzotriazole]

SMILES: Nc1ccc(S(=O)(=O)Nc2ccnn2-c2ccccc2)cc1 [sulfaphenazol]
% Inhibition (duplicate) CYP2C9 (CYP2C9; [7]): 91%

SMILES: CS(=O)(=O)NC(=O)CCCCCCCCCC=C(Br)Br [DDMS]
crossing of the blood brain barrier [3]: does not cross the blood-brain barrier
IC50 (20-HETE formation): 3 µM
effect on baseline cerebral blood flow (cerebral blood flow): no effect

inhibition at 10 µM (CYP2C19; human, human liver microsomes, probe 14C-(S)-mephenyloin (4′-hydroxylation), inhibitor 10 μM, read-out: % Inhibition (duplicate) CYP2C19): 10%
endtidal pCO2 versus vehicle [4]: no significant differences
IC50 [2]: 1.8 ± 0.8 µM
inhibition at 10 µM (CYP2D6; [6]): -3%
% Inhibition (duplicate) CYP3A4 (CYP3A4; 10 µM): 29%
inhibition at 10 µM (CYP3A4; % Inhibition (duplicate) CYP3A4): 20 to 30%
% Inhibition (duplicate) CYP2C9 (CYP2C9; human, microsomes, 10 µM): 23%
inhibition at 10 µM (CYP2C9; human, microsomes, % Inhibition (duplicate) CYP2C9): 20 to 30%
SMILES: C#CCCCCCCCCCCCCCCCC(=O)O [17-ODYA, 17-Octadecynoic acid]
MAP (blood pressure) versus vehicle [4]: no difference
concentration of 20-HETE in the CSF versus vehicle (20-HETE in CSF): significantly lower concentration
fall in cerebral blood flow following SAH (rats with SAH; 1.5 nmol into the Cisterna Magna of rats): completely blocked
reduction of the initial fall in rCBF at 10 min (rats with SAH; rats pretreated before SAH, HET0016 10 mg/kg i.v. 30 min prior, 17-ODYA 1.5 nmol intrathecally): about 40%
time after induction of SAH within which rCBF recovered fully to values not different from control (rats with SAH; rats pretreated before SAH, HET0016 10 mg/kg i.v., 17-ODYA 1.5 nmol intrathecally): ≤ 90 min
crossing of the blood brain barrier [3]: does not cross the blood brain barrier
IC50 (20-HETE formation): 1 µM

SMILES: C=C[C@H]1C[N@@]2CC[C@H]1C[C@@H]2[C@@H](O)c1ccnc2ccc(OC)cc12 [Quinidine]
% Inhibition (duplicate) CYP2D6 (CYP2D6; [7]): 91%
